Values quoted from earlier work in US20030082102A1, “Radioactive platinum complexes for cancer treatment” (priority 2001, published 2003).
Where two headings read alike, the source gives them in different places.

Assays:
[1] = tracer quantities
mammalian cells = details: for radiopotentiation / potentiation of chemotherapy effectiveness: cell culture, Howell 1994
tissue culture = details: non-radioactive drug with external radiation

Compound	radiopotentiation / potentiation of chemotherapy effectiveness (mammalian cells)	Radiation enhancer in vitro? (tissue culture)	further results
[NH2][Pt]([NH2])([Cl])[Cl] [^195mPt-cisplatinum]	no potentiation of chemotherapy effectiveness		tumor drug level (tumor uptake) ([1]; intra-arterial infusion, patients with nonresectable hepatoma): 34-55 % of given dose; tumor drug level (tumor uptake) ([1]; intravenous route): < 5 % of given dose; radiotoxicity above and beyond chemical toxicity (mammalian cells; cell culture studies, Howell et al 1994): no radiotoxicity above and beyond its chemical toxicity
N.N.O=C([O-])C1(C(=O)[O-])CCC1.[Pt+2] [Carboplatin, 1,1-Cyclobutanedicarboxylate diamine platinum (II)]		Yes	
CC(=O)[O][Pt]([NH2])([Cl])([Cl])([NH]C1CCCCC1)[O]C(C)=O [JM216]		Yes	
N.N.[Cl][Pt+2][Cl] [^195mPt-trans-cisplatinum]	showed radiopotentiation		
CC(C)N.CC(C)N.[Cl-].[Cl-].[OH-].[OH-].[Pt] [Iproplatin, Cis-dichloro,trans-dihydroxybis-isopropylamine platinum (IV)]		Yes	
